Results on eight molecules are retold here after US4868195A, “Novel enolamides, pharmaceutical compositions and methods of use thereof for activity as modulators of the arachidonic acid cascade” (Warner-Lambert Company, priority 1988, dated 1989).

SMILES strings stand for the structures.

One assay concerns Human Leukocyte Lipoxygenase. The experiment in a line: Human Leukocyte Lipoxygenase Assay (LDA-H). The class given is biochemical. The conditions noted are these: Concentration 2.50 E -5 M. The gist of the method:
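Enzyme from acetone-pentane powder of human buffy-coat leukocytes, extracted in 0.1M Tris pH 7.4. Compound preincubated 5 min with enzyme, then reaction started with arachidonic or linoleic acid (100 μM or 1.0 μM) and followed at 234 nm (conjugated diene) at 24° C. IC50 is molar concentration halving control rate.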
In the case of `O=C(Nc1ccc(CCc2ccc3ccccc3c2)cc1)C1=C(O)c2ccccc2S(=O)(=O)C1` [Example 51, 4-Hydroxy-N-[4-[2-(2-naphthalenyl)ethyl]phenyl]-2H-1-benzothiopyran-3-carboxamide, 1,1-dioxide], the “% Inhibition (LDAH)” value was determined as 0.0%.
Still for that read-out and setting: in the case of `CCCCOc1ccc(CCc2ccc(NC(=O)C3CS(=O)(=O)c4ccccc4C3=O)cc2)cc1` (centres unmarked) [Example 48] it was 0.0%.

Staying with this assay, now noted: acetone-pentane powder enzyme, 234 nm, 24° C., 5 min preincubation; read-out: Concentration (M) for 50.0 % Inhibition, IC (LDAH).
`COc1ccc(CCc2ccc(NC(=O)c3sc4ccccc4c3O)cc2)cc1OC` [Example 143, Benzo[b]thiophene-2-carboxamide, N-[4-[2-(3,4-dimethoxphenyl)ethyl]phenyl]-3-hydroxy]: the IC50 was found to be 4.4e-06 M.
With `CCCCCCCCCCc1ccc(NC(=O)C2CS(=O)(=O)c3ccccc3C2=O)cc1` (centres unmarked) [Example 60, N-(4-Decylphenyl)-3,4-dihydro-4-oxo-2H-1-benzoothiopyran-3-carboxamide, 1,1-dioxide], the IC50 is 2.5e-05 M.
Same read-out and setting: in the case of `COc1ccc(CCc2ccc(NC(=O)C3CS(=O)(=O)c4ccccc4C3=O)cc2)cc1` (centres unmarked) [Example 41] it was 4.5e-05 M; in that of `O=C(Nc1ccc(CCc2ccc(Cl)cc2)cc1)C1CS(=O)(=O)c2ccccc2C1=O` (centres unmarked) [Example 54, N-[4-[2-(4-Chlorophenyl)ethyl]phenyl]-3,4-dihydro-4-oxo-2H-1-benzothiopyran-3-carboxamide, 1,1-dioxide], 3.5e-06 M.
On to `O=C(Nc1ccc(CCc2ccccc2)cc1)C1CS(=O)(=O)c2ccccc2C1=O` (centres unmarked) [Example 16, 3,4-Dihydro-4-oxo-N-[(4-(2-phenyl)ethyl]-phenyl]-2H-1-benzothiopyran-3-carboxamide, 1,1-dioxide], for which the IC50 stood at 5.1e-05 M.
Same read-out and setting: in the case of `O=C(Nc1ccc(CCc2ccc(-c3ccccc3)cc2)cc1)C1CS(=O)(=O)c2ccccc2C1=O` (centres unmarked) [Example 46, N-[4-[2-([1,1'-biphenyl]-4-yl)ethyl]phenyl]-3,4-dihydro-4-oxo-2H-1-benzothiopyran-3-carboxamide, 1,1-dioxide] it was 1.1e-05 M.
